Source: ChEMBL document CHEMBL1649524, “Resistance selection studies comparing the activity of razupenem (PTZ601) to vancomycin and linezolid against eight methicillin-resistant and two methicillin-susceptible Staphylococcus aureus strains” (2009)
Converted amounts (≈) assume the structure as drawn.

Tests used:
Staphylococcus aureus [1] = assay: Antimicrobial activity against methicillin-susceptible Staphylococcus aureus 540 measured on day 40 by macrodilution method; type: functional
Staphylococcus aureus [2] = assay: Antimicrobial activity against methicillin-resistant Staphylococcus aureus 547 measured on day 25 by macrodilution method; type: functional; conditions: Staphylococcus aureus, 547, 600 h
Staphylococcus aureus [3] = assay: Antimicrobial activity against vancomycin-resistant Staphylococcus aureus 510 after 50 passages by macrodilution method; type: functional
Staphylococcus aureus [4] = assay: Antimicrobial activity against methicillin-resistant Staphylococcus aureus 525 measured on day 45 by macrodilution method; type: functional
Staphylococcus aureus [5] = assay: Antimicrobial activity against methicillin-susceptible Staphylococcus aureus 540 measured on day 50 by macrodilution method; type: functional
Staphylococcus aureus [6] = assay: Antimicrobial activity against vancomycin-intermediate Staphylococcus aureus 555 by macrodilution method; type: functional
Staphylococcus aureus [7] = assay: Antimicrobial activity against methicillin-resistant Staphylococcus aureus 525 measured on day 20 by macrodilution method; type: functional; conditions: Staphylococcus aureus, 525, 480 h
Staphylococcus aureus [8] = assay: Antimicrobial activity against vancomycin-intermediate Staphylococcus aureus 555 measured on day 45 by macrodilution method; type: functional
Staphylococcus aureus [9] = assay: Antimicrobial activity against heterogeneous vancomycin-intermediate Staphylococcus aureus 168 measured on day 20 by macrodilution method; type: functional; conditions: Staphylococcus aureus, 168, 480 h
Staphylococcus aureus [10] = assay: Antimicrobial activity against vancomycin-intermediate Staphylococcus aureus 555 measured on day 50 by macrodilution method; type: functional
Staphylococcus aureus [11] = assay: Antimicrobial activity against methicillin-resistant Staphylococcus aureus 547 measured on day 50 by macrodilution method; type: functional
Staphylococcus aureus [12] = assay: Antimicrobial activity against heterogeneous vancomycin-intermediate Staphylococcus aureus 168 measured on day 25 by macrodilution method; type: functional; conditions: Staphylococcus aureus, 168, 600 h
Staphylococcus aureus [13] = assay: Antimicrobial activity against heterogeneous vancomycin-intermediate Staphylococcus aureus 873 measured on day 30 by macrodilution method; type: functional
Staphylococcus aureus [14] = assay: Antimicrobial activity against heterogeneous vancomycin-intermediate Staphylococcus aureus 168 after 50 passages by macrodilution method; type: functional
Staphylococcus aureus [15] = assay: microbe, parasite or virus in culture; conditions: 547
Description: Antimicrobial activity against methicillin-resistant Staphylococcus aureus 547 after 50 passages by macrodilution method

Staphylococcus aureus [16] = assay: Antimicrobial activity against methicillin-susceptible Staphylococcus aureus 543 after 50 passages by macrodilution method; type: functional
Staphylococcus aureus [17] = assay: Antimicrobial activity against methicillin-resistant Staphylococcus aureus 525 measured on day 50 by macrodilution method; type: functional
Staphylococcus aureus [18] = assay: Antimicrobial activity against methicillin-susceptible Staphylococcus aureus 543 measured on day 15 by macrodilution method; type: functional; conditions: Staphylococcus aureus, 543, 360 h
Staphylococcus aureus [19] = assay: Antimicrobial activity against vancomycin-intermediate Staphylococcus aureus 555 measured on day 40 by macrodilution method; type: functional
Staphylococcus aureus [20] = assay: Antimicrobial activity against methicillin-susceptible Staphylococcus aureus 543 measured on day 45 by macrodilution method; type: functional
Staphylococcus aureus [21] = assay: Antimicrobial activity against methicillin-susceptible Staphylococcus aureus 540 after 50 passages by macrodilution method
Staphylococcus aureus [22] = assay: Antimicrobial activity against vancomycin-intermediate Staphylococcus aureus 1287 measured on day 15 by macrodilution method; type: functional; conditions: Staphylococcus aureus, 1287, 360 h
Staphylococcus aureus [23] = assay: Antimicrobial activity against heterogeneous vancomycin-intermediate Staphylococcus aureus 168 measured on day 35 by macrodilution method; type: functional
Staphylococcus aureus [24] = assay: Antimicrobial activity against heterogeneous vancomycin-intermediate Staphylococcus aureus 168 measured on day 40 by macrodilution method; type: functional
Staphylococcus aureus [25] = assay: Antimicrobial activity against methicillin-susceptible Staphylococcus aureus 543 measured on day 25 by macrodilution method; type: functional; conditions: Staphylococcus aureus, 543, 600 h
Staphylococcus aureus [26] = assay: Antimicrobial activity against methicillin-resistant Staphylococcus aureus 547 measured on day 30 by macrodilution method; type: functional
Staphylococcus aureus [27] = assay: Antimicrobial activity against vancomycin-resistant Staphylococcus aureus 510 by macrodilution method; type: functional
Staphylococcus aureus [28] = assay: Antimicrobial activity against vancomycin-intermediate Staphylococcus aureus 555 measured on day 25 by macrodilution method; type: functional; conditions: Staphylococcus aureus, 555, 600 h
Staphylococcus aureus [29] = assay: Antimicrobial activity against methicillin-susceptible Staphylococcus aureus 540 measured on day 35 by macrodilution method; type: functional
Staphylococcus aureus [30] = assay: Antimicrobial activity against methicillin-resistant Staphylococcus aureus 525 measured on day 35 by macrodilution method; type: functional
Staphylococcus aureus [31] = assay: Antimicrobial activity against heterogeneous vancomycin-intermediate Staphylococcus aureus 168 measured on day 45 by macrodilution method; type: functional
Staphylococcus aureus [32] = assay: Antimicrobial activity against vancomycin-resistant Staphylococcus aureus 509 measured after 10 antibiotic-free subculturing by macrodilution method; type: functional
Staphylococcus aureus [33] = assay: Antimicrobial activity against methicillin-susceptible Staphylococcus aureus 540 measured on day 15 by macrodilution method; type: functional; conditions: Staphylococcus aureus, 540, 360 h
Staphylococcus aureus [34] = assay: Antimicrobial activity against methicillin-resistant Staphylococcus aureus 547 measured on day 35 by macrodilution method; type: functional
Staphylococcus aureus [35] = assay: Antimicrobial activity against methicillin-resistant Staphylococcus aureus 525 after 50 passages by macrodilution method; type: functional
Staphylococcus aureus [36] = assay: Antimicrobial activity against methicillin-susceptible Staphylococcus aureus 540 measured on day 20 by macrodilution method; type: functional; conditions: Staphylococcus aureus, 540, 480 h
Staphylococcus aureus [37] = assay: Antimicrobial activity against methicillin-resistant Staphylococcus aureus 525 measured on day 40 by macrodilution method; type: functional
Staphylococcus aureus [38] = assay: Antimicrobial activity against vancomycin-intermediate Staphylococcus aureus 555 measured on day 5 by macrodilution method; type: functional; conditions: Staphylococcus aureus, 555, 120 h
Staphylococcus aureus [39] = assay: Antimicrobial activity against vancomycin-intermediate Staphylococcus aureus 1287 after 50 passages by macrodilution method; type: functional
Staphylococcus aureus [40] = assay: Antimicrobial activity against methicillin-resistant Staphylococcus aureus 525 measured on day 30 by macrodilution method; type: functional
Staphylococcus aureus [41] = assay: Antimicrobial activity against heterogeneous vancomycin-intermediate Staphylococcus aureus 168 measured on day 50 by macrodilution method; type: functional
Staphylococcus aureus [42] = assay: Antimicrobial activity against methicillin-susceptible Staphylococcus aureus 543 measured on day 20 by macrodilution method; type: functional; conditions: Staphylococcus aureus, 543, 480 h
Staphylococcus aureus [43] = assay: Antimicrobial activity against vancomycin-intermediate Staphylococcus aureus 555 measured on day 35 by macrodilution method; type: functional
Staphylococcus aureus [44] = assay: Antimicrobial activity against methicillin-susceptible Staphylococcus aureus 540 measured on day 30 by macrodilution method; type: functional
Staphylococcus aureus [45] = assay: Antimicrobial activity against vancomycin-intermediate Staphylococcus aureus 555 measured on day 15 by macrodilution method; type: functional; conditions: Staphylococcus aureus, 555, 360 h
Staphylococcus aureus [46] = assay: Antimicrobial activity against vancomycin-intermediate Staphylococcus aureus 555 measured on day 20 by macrodilution method; type: functional; conditions: Staphylococcus aureus, 555, 480 h
Staphylococcus aureus [47] = assay: Antimicrobial activity against methicillin-susceptible Staphylococcus aureus 540 measured on day 25 by macrodilution method; type: functional; conditions: Staphylococcus aureus, 540, 600 h
Staphylococcus aureus [48] = assay: Antimicrobial activity against vancomycin-intermediate Staphylococcus aureus 555 measured on day 30 by macrodilution method; type: functional
Staphylococcus aureus [49] = assay: microbe, parasite or virus in culture; conditions: 555
Description: Antimicrobial activity against vancomycin-intermediate Staphylococcus aureus 555 after 50 passages by macrodilution method

Staphylococcus aureus [50] = assay: Antimicrobial activity against methicillin-susceptible Staphylococcus aureus 543 measured on day 50 by macrodilution method; type: functional
Staphylococcus aureus [51] = assay: Antimicrobial activity against methicillin-susceptible Staphylococcus aureus 543 measured on day 35 by macrodilution method; type: functional
Staphylococcus aureus [52] = assay: Antimicrobial activity against methicillin-susceptible Staphylococcus aureus 543 measured on day 30 by macrodilution method; type: functional
Staphylococcus aureus [53] = assay: Antimicrobial activity against methicillin-susceptible Staphylococcus aureus 540 measured on day 45 by macrodilution method; type: functional
Staphylococcus aureus [54] = assay: Antimicrobial activity against vancomycin-intermediate Staphylococcus aureus 555 measured on day 10 by macrodilution method; type: functional; conditions: Staphylococcus aureus, 555, 240 h
Staphylococcus aureus [55] = assay: Antimicrobial activity against vancomycin-resistant Staphylococcus aureus 509 by macrodilution method; type: functional
Staphylococcus aureus [56] = assay: Antimicrobial activity against vancomycin-intermediate Staphylococcus aureus 1287 measured on day 50 by macrodilution method; type: functional
Staphylococcus aureus [57] = assay: Antimicrobial activity against vancomycin-intermediate Staphylococcus aureus 1287 measured on day 45 by macrodilution method; type: functional

With CN[C@H](CC(C)C)C(=O)N[C@H]1C(=O)N[C@@H](CC(N)=O)C(=O)N[C@H]2C(=O)N[C@H]3C(=O)N[C@H](C(=O)N[C@H](C(=O)O)c4cc(O)cc(O)c4-c4cc3ccc4O)[C@H](O)c3ccc(c(Cl)c3)Oc3cc2cc(c3O[C@@H]2O[C@H](CO)[C@@H](O)[C@H](O)[C@H]2O[C@H]2C[C@](C)(N)[C@H](O)[C@H](C)O2)Oc2ccc(cc2Cl)[C@H]1O [VANCOMYCIN] the MIC (Staphylococcus aureus [1]) was 32 µg/mL (≈ 22.1 µM), the MIC (Staphylococcus aureus [2]) was 8 µg/mL (≈ 5.52 µM) and the MIC (Staphylococcus aureus [3]) was ≥ 64 µg/mL. For the same molecule, the MIC (Staphylococcus aureus [4]) was 8 µg/mL (≈ 5.52 µM), the MIC (Staphylococcus aureus [5]) was 8 µg/mL (≈ 5.52 µM) and the MIC (Staphylococcus aureus [6]) was 8 µg/mL (≈ 5.52 µM). The MIC (Staphylococcus aureus [7]) was 8 µg/mL (≈ 5.52 µM), the MIC (Staphylococcus aureus [8]) was 32 µg/mL (≈ 22.1 µM) and the MIC (Staphylococcus aureus [9]) was 8 µg/mL (≈ 5.52 µM). For the same molecule, the MIC (Staphylococcus aureus [10]) was 8 µg/mL (≈ 5.52 µM), the MIC (Staphylococcus aureus [11]) was 8 µg/mL (≈ 5.52 µM) and the MIC (Staphylococcus aureus [12]) was 8 µg/mL (≈ 5.52 µM). It also gave an MIC (Staphylococcus aureus [13]) of 8 µg/mL (≈ 5.52 µM), an MIC (Staphylococcus aureus [14]) of 8 µg/mL (≈ 5.52 µM) and an MIC (Staphylococcus aureus [15]) of 8 µg/mL (≈ 5.52 µM). It also gave an MIC (Staphylococcus aureus [16]) of 8 µg/mL (≈ 5.52 µM), an MIC (Staphylococcus aureus [17]) of 8 µg/mL (≈ 5.52 µM) and an MIC (Staphylococcus aureus [18]) of 8 µg/mL (≈ 5.52 µM). It also gave an MIC (Staphylococcus aureus [19]) of 32 µg/mL (≈ 22.1 µM), an MIC (Staphylococcus aureus [20]) of 8 µg/mL (≈ 5.52 µM) and an MIC (Staphylococcus aureus [21]) of 8 µg/mL (≈ 5.52 µM). For the same molecule, the MIC (Staphylococcus aureus [22]) was 8 µg/mL (≈ 5.52 µM), the MIC (Staphylococcus aureus [23]) was 8 µg/mL (≈ 5.52 µM) and the MIC (Staphylococcus aureus [24]) was 8 µg/mL (≈ 5.52 µM). The MIC (Staphylococcus aureus [25]) was 8 µg/mL (≈ 5.52 µM), the MIC (Staphylococcus aureus [26]) was 16 µg/mL (≈ 11 µM) and the MIC (Staphylococcus aureus [27]) was 64 µg/mL (≈ 44.2 µM). It also gave an MIC (Staphylococcus aureus [28]) of 8 µg/mL (≈ 5.52 µM), an MIC (Staphylococcus aureus [29]) of 8 µg/mL (≈ 5.52 µM) and an MIC (Staphylococcus aureus [30]) of 8 µg/mL (≈ 5.52 µM). For the same molecule, the MIC (Staphylococcus aureus [31]) was 8 µg/mL (≈ 5.52 µM), the MIC (Staphylococcus aureus [32]) was > 64 µg/mL and the MIC (Staphylococcus aureus [33]) was 8 µg/mL (≈ 5.52 µM). For the same molecule, the MIC (Staphylococcus aureus [34]) was 8 µg/mL (≈ 5.52 µM), the MIC (Staphylococcus aureus [35]) was 8 µg/mL (≈ 5.52 µM) and the MIC (Staphylococcus aureus [36]) was 8 µg/mL (≈ 5.52 µM). The MIC (Staphylococcus aureus [37]) was 16 µg/mL (≈ 11 µM), the MIC (Staphylococcus aureus [38]) was 8 µg/mL (≈ 5.52 µM) and the MIC (Staphylococcus aureus [39]) was 8 µg/mL (≈ 5.52 µM). For the same molecule, the MIC (Staphylococcus aureus [40]) was 0.06 µg/mL (≈ 0.0414 µM), the MIC (Staphylococcus aureus [41]) was 8 µg/mL (≈ 5.52 µM) and the MIC (Staphylococcus aureus [42]) was 8 µg/mL (≈ 5.52 µM). It also gave an MIC (Staphylococcus aureus [43]) of 32 µg/mL (≈ 22.1 µM), an MIC (Staphylococcus aureus [44]) of 8 µg/mL (≈ 5.52 µM) and an MIC (Staphylococcus aureus [45]) of 8 µg/mL (≈ 5.52 µM). For the same molecule, the MIC (Staphylococcus aureus [46]) was 8 µg/mL (≈ 5.52 µM), the MIC (Staphylococcus aureus [47]) was 8 µg/mL (≈ 5.52 µM) and the MIC (Staphylococcus aureus [48]) was 16 µg/mL (≈ 11 µM). It also gave an MIC (Staphylococcus aureus [49]) of 8 µg/mL (≈ 5.52 µM), an MIC (Staphylococcus aureus [50]) of 8 µg/mL (≈ 5.52 µM) and an MIC (Staphylococcus aureus [51]) of 8 µg/mL (≈ 5.52 µM). For the same molecule, the MIC (Staphylococcus aureus [52]) was 8 µg/mL (≈ 5.52 µM), the MIC (Staphylococcus aureus [53]) was 16 µg/mL (≈ 11 µM) and the MIC (Staphylococcus aureus [54]) was 8 µg/mL (≈ 5.52 µM). For the same molecule, the MIC (Staphylococcus aureus [55]) was > 64 µg/mL, the MIC (Staphylococcus aureus [56]) was 8 µg/mL (≈ 5.52 µM) and the MIC (Staphylococcus aureus [57]) was 8 µg/mL (≈ 5.52 µM).
